# Test results: patent US11339189B2, “DNA primase and gyrase inhibitors” (B. G. NEGEV TECHNOLOGIES AND APPLICATIONS LTD., AT …, priority 2016, dated 2022)
# Legend:
# [1] = target: T1, T7 DNA primase (primase domain of bacteriophage T7 gene 4 protein, residues 1-271) (Escherichia phage T7, UniProt P03692); test: Oligoribonucleotide synthesis assay: template-directed diribonucleotide (pppAC) synthesis catalyzed by the T7 DNA primase domain (FIG. 5); assay type: biochemical; details: T7 gene 4 primase domain (residues 1-271, expressed in E. coli BL21(DE3)); DNA template with recognition site 5'-GTC-3' (5'-GGGTCA10-3'), ATP, [α-32P]-CTP, 10 mM MnCl2, pH 7.5; gel autoradiography of pppAC; four parameter logistic fit; parenthesised figure not explained
# T1 construct: T7 primase domain (residue: 1-271) was over-produced and purified; made in house; host or cells: E. coli BL21(DE3), plasmid pETg4P
# Source text: FIGS. 5A-C present a scheme summarizing the assay in which the DNA template containing the primase recognition site 5′-GTCA10-3′ enables the synthesis of only diribonucleotides pppAC (FIG. 5A), and gel bands and quantification of gel bands representing the reaction products (5′-pppAC-3′) (FIG. 5B and FIG. 5C, respectively).
# Protein expression and purification: Proteins and Reagents. All chemical reagents were of molecular biology grade (Sigma); ATP and CTP (Roche Molecular Biochemicals). dNTPs and ddNTPs were purchased from USB Corp. Premade gels (10-20% linear gradients) used for SDS-PAGE and Precision Plus Protein prestained standards were purchased from BioRad (Hercules, Calif.). T7 primase domain (residue: 1-271) was over-produced and purified using metal free buffers as previously described in Mol Cell 11, 1349-60 (2003). T7 gp5 and E. Coli trx were overproduced and purified as described in J. Biol. Chem. 262, 16224-32 (1987). Gp4 was overproduced and purified as described in J. Biol. Chem. 272, 18425-33 (1997). M13 ssDNA was prepared as described in J. Biol. Chem. 261, 15208-16 (1986). [α-^32P]-CTP (800 Ci/mmol) was purchased from Perkin Elmer.
# (§1) Oligoribonucleotide Synthesis Assay: Oligoribonucleotides were synthesized by DNA primase, product was measured as described in J Biol Chem 272, 5943-51 (1997) and in J Biol Chem 266, 23240-50 (1991), in reactions containing various concentrations (1.1, 3.3, and 10 μM) of gene 4 primase domain. […]
# (§2) Small molecules that inhibit primase activity: to catalyze the synthesis of short RNA primers, T7 primase requires DNA with a primase recognition site, ATP and CTP, and a buffer containing divalent metal ions. […] The radioactively labeled oligoribonucleotides were separated on a denaturing polyacrylamide gel, and radioactivity was measured on an autoradiogram. The amounts of RNA-primed DNA syntheses were determined by measuring the incorporation of dTMP (see Methods). […]
# [2] = target: T2, T7 primase (gp4) with gp5/trx (Escherichia phage T7, UniProt P03692); test: Primase dependent DNA synthesis (gp4 primers extended by gp5/trx on M13 ssDNA); assay type: biochemical, bacteriophage T7; details: 350 μM of each small molecule, FIG. 4B
# T2 construct: the helicase-primase (gene product 4, gp4, full-length) was run; made in house
# Protocol: Primase dependent DNA synthesis: RNA primers made by gp4A were extended by gp5/trx. The reaction mixture contained 10 nM M13 ssDNA, 0.3 mM dNTPs, 0.1 μCi [α-^32P] dCTP, 20 nM gp5/trx, 200 nM monomeric gp4A, and 350 μM of each compound. The reaction was incubated for 45 min at 37° C. Reaction was terminated and amount of DNA synthesis was determined as described in DNA polymerase assay.
# Small molecules that inhibit the concerted activity of primase and DNA polymerase: To evaluate the ability of the small molecule candidates to inhibit the primase-dependent replication of the lagging strand of bacteriophage DNA, an overall assay that involved the concerted activity of DNA polymerase (gene product 5 and E. coli thioredoxin, gp5/trx) and the helicase-primase (gene product 4, gp4, full-length) was run. In bacteriophage T7, lagging strand DNA synthesis involves interactions between gp5/trx and gp4. Full-length gp4 is required for the synthesis of oligoribonucleotides to initiate the synthesis of Okazaki fragments.
# To examine the effect of 350 μM of each small molecule on the synthesis of primers and their transfer to gp5/trx, M13 ssDNA for the synthesis of oligoribonucleotides by the primase and their extension by gp5/trx was used (FIG. 4b, inset). To initiate DNA synthesis, the primase must first synthesize tetraribonucleotides on the DNA and then transfer them to gp5/trx. In addition to the four dNTPs, ATP and CTP were also provided, and the primers that were synthesized included pppACCC, pppACAC, and pppACCA.
# The Table in FIG. 6A presents the inhibitory effect of various small molecules on primase-dependent DNA synthesis mediated by gp5/trx and gene 4 helicase (gp4A). The standard reaction contained the ssM13 DNA template (10 nM), 0.3 mM dATP, dGTP, dCTP and [α-^32P] dTTP (0.1 mCi), 10 nM gp5/trx, 200 nM monomeric concentrations of […] and 250 μM of small molecule inhibitors. After incubation for 30 min at 37° C., the level of […] was determined based on the amount of [α-^32P] dTTP incorporated into DNA.
# T7 DNA primase [3] = target: T3, T7 DNA primase (Escherichia phage T7, UniProt P03692); test: [1H,15N]-TROSY HSQC titration of labeled primase with compounds; assay type: binding, bacteriophage T7; details: compared to free T7 primase
# T3 construct: T7 primase domain (residue: 1-271) was over-produced and purified using metal free buffers; made in house; host or cells: E. coli Bl21(DE3) containing pETg4P
# Protocol: [^1H,^15N]-TROSY HSQC titration spectra of 15N,D T7 DNA primase with selected fragment molecules and compounds 1, 12, 13, 15, 17, ATP, and DNA were recorded at 25° C. on a Bruker DMX 800 MHz spectrometer equipped with TXI cryoprobes with Z gradient. Data were processed and analyzed using NMRPipe (Journal of Biomolecular NMR 6, 277-293 (1995)) and NMRView (Journal of Biomolecular Nmr 4, 603-614 (1994)).
# Structural analysis of inhibitor-primase interactions: To characterize the binding of the compounds identified using FBVS, the [^15N, ^1H]-TROSY-HSQC spectra of ^15N- and D-labeled T7 primase in the presence of the selected lead compounds (FIGS. 7A-B) were measured. […] Relative to the initial scaffold alone, those shifts were more pronounced, which indicates stronger binding interactions. In addition, chemical shift perturbations upon the addition of DNA and ATP/CTP to the T7 primase domain confirmed that all three compounds bind to the active site. […] Compounds 12 and 15, whose polar dissolution values were the lowest from among the five inhibitors, were not able to achieve the concentrations needed for the protein-NMR experiments.
# [4] = Polar dissolution of inhibitors for protein-NMR experiments; assay type: physicochemical; details: among the five inhibitors
# T7 DNA primase [5] = target: T3, T7 DNA primase; test: Fragment based screening by STD NMR spectroscopy; assay type: binding, bacteriophage T7; details: ranked by total change in intensity and number of affected peaks; Maybridge Ro3 library
# Protocol: NMR experiments—Fragment Based Screening: T7 primase was screened against the Maybridge Ro3 Diversity Fragment Library containing 1000 compounds using STD spectroscopy. Samples for 1D ligand-observed NMR studies contained […] T7 primase in 50 mM phosphate buffer in D2O and 10 compounds, resulting in a total of 100 samples. NMR spectra were recorded on a Bruker Avance 500 MHz equipped with a TXO cryoprobe with Z gradient and a NMR-CASE sample changer at 298 K. Ligand binding was probed using a saturation transfer difference pulse program. Saturation was achieved using on-resonance irradiation at 0 ppm with a train of Wurst pulses for a total saturation time of 1.5 s. Off resonance irradiation was centered at 40 ppm. Spectra were acquired with a sweep width of 8012.8 Hz, 8192 data points and 224 scans. Active compounds were identified by comparing the STD spectra with the corresponding reference spectra using the MestreNova software. Any compound with reduced peak intensities was considered a hit and ranked according to the percentage of intensity decrease and the number of affected peaks per compound.
# Using the Maybridge Ro3 fragment library containing 1000 fragments, 100 NMR samples were prepared, each containing a mixture of 10 fragments and 50 μM T7 primase.
# The 10 fragments were chosen to show minimal overlap of their 1H chemical shift to allow easy identification of the shifts. […]
# T7 primase domain = target: T4, T7 primase domain (Escherichia phage T7, UniProt P03692); test: Oligoribonucleotide (pppAC diribonucleotide) synthesis assay; assay type: biochemical, bacteriophage T7; details: pppAC synthesis by T7 primase domain; four parameter logistic fit
# T4 construct: T7 primase domain (residue: 1-271) was over-produced and purified using metal free buffers; made in house; host or cells: E. coli Bl21(DE3) containing pETg4P
# Protocol: as §1, with “domain. Standard 10 μL reaction contained 5 μM of DNA template (5′-GGGTCA10-3′), 200 μM ATP, 200 μM [α-^32P]-CTP, and primase domain in a buffer containing 40 mM Tris-HCl (pH 7.5), 10 mM MnCl2, 10 mM DTT, and 50 mM potassium glutamate.” for “domain.”
# as §2
# The reaction conditions involve incubating the primase domain with an oligonucleotide containing a primase recognition sequence. […] After incubation, the radioactive products were analyzed by electrophoresis through 25% polyacrylamide gel containing 3 M urea and visualized using autoradiography.
# T2 sequence (P03692 whole entry): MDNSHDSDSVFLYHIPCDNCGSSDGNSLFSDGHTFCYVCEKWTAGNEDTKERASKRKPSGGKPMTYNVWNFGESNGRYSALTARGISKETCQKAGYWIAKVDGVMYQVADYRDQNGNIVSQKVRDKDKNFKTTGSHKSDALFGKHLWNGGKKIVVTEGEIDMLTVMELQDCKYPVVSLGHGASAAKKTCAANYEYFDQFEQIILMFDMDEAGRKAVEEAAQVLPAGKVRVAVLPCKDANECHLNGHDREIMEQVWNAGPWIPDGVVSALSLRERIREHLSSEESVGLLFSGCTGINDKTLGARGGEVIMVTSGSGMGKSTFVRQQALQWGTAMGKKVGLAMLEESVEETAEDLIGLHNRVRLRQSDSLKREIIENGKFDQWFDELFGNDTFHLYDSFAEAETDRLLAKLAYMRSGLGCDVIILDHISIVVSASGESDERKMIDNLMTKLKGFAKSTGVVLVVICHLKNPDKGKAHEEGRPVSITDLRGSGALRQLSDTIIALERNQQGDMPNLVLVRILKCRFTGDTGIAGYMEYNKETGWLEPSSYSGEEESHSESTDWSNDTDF
# T1 sequence (P03692 1-271): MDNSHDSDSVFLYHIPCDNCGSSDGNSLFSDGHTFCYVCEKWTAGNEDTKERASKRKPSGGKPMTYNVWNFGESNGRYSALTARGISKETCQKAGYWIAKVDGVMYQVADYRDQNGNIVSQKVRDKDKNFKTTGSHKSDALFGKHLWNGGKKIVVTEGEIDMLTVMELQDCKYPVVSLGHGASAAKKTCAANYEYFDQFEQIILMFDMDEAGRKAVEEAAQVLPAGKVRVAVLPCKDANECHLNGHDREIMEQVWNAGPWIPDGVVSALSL
# T3 sequence (P03692 1-271): as above
# T4 sequence (P03692 1-271): as above
SMILES,IC50 [1] [µM],decrease of primase dependent DNA synthesis [2],chemical shift perturbations of T7 primase upon compound addition (T7 DNA primase [3]),further results
"O=C(O)c1cc2cccc([N+](=O)[O-])c2[nH]1 [Compound 17, 7-nitro-1H-indole-2-carboxylic acid]",314,,,
"CCOC(=O)c1[nH]c2ccc([N+](=O)[O-])cc2c1CCC(=O)O [compound 13, 3-[2-(ethoxycarbonyl)-5-nitro-1H-indol-3-yl]propanoic acid]",,decreases by up to four-fold,significant chemical shift perturbations,
"O=C(Nc1ccc2c(c1)OCO2)c1cc2cccc([N+](=O)[O-])c2[nH]1 [compound 15, N-(1,3-benzodioxol-5-yl)-7-nitro-1H-indole-2-carboxamide]",,decreases by up to four-fold,,polar dissolution values [4]: lowest
NC(=S)C1=Cc2ccccc2OC1 [2H-chromene-3-carbothioamide],,,,binding to T7 primase by STD spectroscopy (decrease in NMR peak intensities) (T7 DNA primase [5]): strongest binding
"O=C1Cc2c([nH]c3ccc([N+](=O)[O-])cc23)-c2ccccc2N1 [Compound 12, 9-Nitro-7,12-dihydroindolo-[3,2-d][1]benzazepin-6(5)-one]",109,,,
"O=C(O)c1cc2cccc([N+](=O)[O-])c2[nH]1 [compound 17, 7-nitro-1H-indole-2-carboxylic acid]",,decreases by up to four-fold,significant chemical shift perturbations,
"O=C(Nc1ccc2c(c1)OCO2)c1cc2cccc([N+](=O)[O-])c2[nH]1 [Compound 15, N-(1,3-benzodioxol-5-yl)-7-nitro-1H-indole-2-carboxamide]",56.7,,,
c1ccc2[nH]ccc2c1 [indole],,,,binding to T7 primase by STD spectroscopy (decrease in NMR peak intensities) (T7 DNA primase [5]): strongest binding
"O=C(O)/C=C/C1=Cc2cc(Cl)ccc2OC1 [compound 1, (2E)-3-(6-chloro-2H-chromen-3-yl)acrylic acid]",,decreases by up to four-fold,significant chemical shift perturbations,
"O=C1Cc2c([nH]c3ccc([N+](=O)[O-])cc23)-c2ccccc2N1 [compound 12, 9-Nitro-7,12-dihydroindolo-[3,2-d][1]benzazepin-6(5)-one]",,decreases by up to four-fold,,Hill coefficient (T7 primase domain): highest value; polar dissolution values [4]: lowest
